Laboratory results as given in patent publication US20050282810A1, “Oxindole derivatives” (priority 2000, published 2005).

biological target: T1, TrkA (Homo sapiens, UniProt P04629); assay: TrkA tyrosine kinase substrate phosphorylation assay (Src peptide, 33P-ATP, p81 filter plates); type: biochemical; conditions: GST-fusion of TrkA intracellular domain, 30 uM ATP, 50 uM Src peptide, RT 120 min
T1 construct: The enzyme is a GST-fusion of the intracellular domain expressed in SF9 cells; GST; host or cells: SF9 insect cells
Procedure: The compounds of the present invention have valuable pharmacologic properties. Different compounds from this class are particularly effective at inhibiting the trkA kinase enzyme at concentrations that range from 0.0001 to 1 μM and additionally show specificity relative to other kinases. Substrate phosphorylation assays were carried out as follows:
Screening format: Tyrosine kinase activity is being measured using a synthetic peptide substrate. The enzyme is a GST-fusion of the intracellular domain expressed in SF9 cells. The enzyme is expressed and purified by Regeneron. The enzyme is preincubated with cold ATP and Mg to allow autophosphorylation prior to running the screen. This increases the initial rate of catalysis approximately 3 fold. The assay is performed in 96 well microtitre plates, and reaction products are detected following filtration through millipore p81 phosphocellulose plates.

T1 sequence (P04629 440-796 limits assumed, species assumed): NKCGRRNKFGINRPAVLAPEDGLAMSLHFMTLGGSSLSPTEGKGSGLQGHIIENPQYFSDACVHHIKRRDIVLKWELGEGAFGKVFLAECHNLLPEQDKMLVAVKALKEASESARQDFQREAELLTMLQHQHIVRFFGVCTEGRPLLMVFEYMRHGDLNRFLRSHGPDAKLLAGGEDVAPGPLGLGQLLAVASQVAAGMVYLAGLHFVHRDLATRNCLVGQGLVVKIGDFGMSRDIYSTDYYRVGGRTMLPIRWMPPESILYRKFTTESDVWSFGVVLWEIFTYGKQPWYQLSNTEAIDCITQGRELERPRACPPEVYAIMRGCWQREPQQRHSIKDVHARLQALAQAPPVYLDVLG

Compound	IC50 [nM]
NC(=O)Cc1ccc(N/C=C2\C(=O)Nc3ccccc32)cc1 [Example 5, 2-(4-{[(Z)-(2-oxo-1,2-dihydro-3H-indol-3-ylidene)methyl]amino}phenyl)acetamide]	10 to 100
CCC1(c2ccc(N/C=C3\C(=O)Nc4ccccc43)cc2)CCC(=O)NC1=O (stereo not shown) [Example 3, 3-ethyl-3-(4-{[(Z)-(2-oxo-1,2-dihydro-3H-indol-3-ylidene)methyl]amino}phenyl)-2,6-piperidinedione]	< 10
O=C1Nc2ccccc2/C1=C/Nc1ccc(-c2nc[nH]n2)cc1 [Example 6, (3Z)-3-{[4-(1H-1,2,4-triazol-3-yl)anilino]methylene}-1,3-dihydro-2H-indol-2-one]	10 to 100
Nc1nnc(-c2cccc(N/C=C3\C(=O)Nc4ccc5[nH]nnc5c43)c2)o1 [Example 4, (8Z)-8-{[3-(5-amino-1,3,4-oxadiazol-2-yl)anilino]methylene}-6,8-dihydro[1,2,3]triazolo[4,5-e]indol-7(3H)-one]	< 10
O=C1Nc2ccccc2/C1=C/Nc1ccc2[nH]c(=O)[nH]c2c1 [Example 1, 5-{[(Z)-(2-oxo-1,2-dihydro-3H-indol-3-ylidene)methyl]amino}-1,3-dihydro-2H-benzimidazol-2-one]	< 10
O=C1Nc2ccccc2/C1=C/Nc1ccc(-n2cncn2)cc1 [Example 2, (3Z)-3-{[4-(1H-1,2,4-triazol-1-yl)anilino]-methylene}-1,3-dihydro-2H-indol-2-one]	< 10

tested on: not given; assay: not given; conditions: not given

Compound	melting point [°C]
NC(=O)Cc1ccc(N/C=C2\C(=O)Nc3ccccc32)cc1 [Example 5, 2-(4-{[(Z)-(2-oxo-1,2-dihydro-3H-indol-3-ylidene)methyl]amino}phenyl)acetamide]	> 250
